In ChEMBL document CHEMBL1821609, “Combined SVM-based and docking-based virtual screening for retrieving novel inhibitors of c-Met” (Eur J Med Chem, 2011) one finds IC50 data, which are given here for 31 compounds.

The target of the experiment is Hepatocyte growth factor receptor (Homo sapiens, UniProt P08581).
Chain of Hepatocyte growth factor receptor (P08581 whole entry): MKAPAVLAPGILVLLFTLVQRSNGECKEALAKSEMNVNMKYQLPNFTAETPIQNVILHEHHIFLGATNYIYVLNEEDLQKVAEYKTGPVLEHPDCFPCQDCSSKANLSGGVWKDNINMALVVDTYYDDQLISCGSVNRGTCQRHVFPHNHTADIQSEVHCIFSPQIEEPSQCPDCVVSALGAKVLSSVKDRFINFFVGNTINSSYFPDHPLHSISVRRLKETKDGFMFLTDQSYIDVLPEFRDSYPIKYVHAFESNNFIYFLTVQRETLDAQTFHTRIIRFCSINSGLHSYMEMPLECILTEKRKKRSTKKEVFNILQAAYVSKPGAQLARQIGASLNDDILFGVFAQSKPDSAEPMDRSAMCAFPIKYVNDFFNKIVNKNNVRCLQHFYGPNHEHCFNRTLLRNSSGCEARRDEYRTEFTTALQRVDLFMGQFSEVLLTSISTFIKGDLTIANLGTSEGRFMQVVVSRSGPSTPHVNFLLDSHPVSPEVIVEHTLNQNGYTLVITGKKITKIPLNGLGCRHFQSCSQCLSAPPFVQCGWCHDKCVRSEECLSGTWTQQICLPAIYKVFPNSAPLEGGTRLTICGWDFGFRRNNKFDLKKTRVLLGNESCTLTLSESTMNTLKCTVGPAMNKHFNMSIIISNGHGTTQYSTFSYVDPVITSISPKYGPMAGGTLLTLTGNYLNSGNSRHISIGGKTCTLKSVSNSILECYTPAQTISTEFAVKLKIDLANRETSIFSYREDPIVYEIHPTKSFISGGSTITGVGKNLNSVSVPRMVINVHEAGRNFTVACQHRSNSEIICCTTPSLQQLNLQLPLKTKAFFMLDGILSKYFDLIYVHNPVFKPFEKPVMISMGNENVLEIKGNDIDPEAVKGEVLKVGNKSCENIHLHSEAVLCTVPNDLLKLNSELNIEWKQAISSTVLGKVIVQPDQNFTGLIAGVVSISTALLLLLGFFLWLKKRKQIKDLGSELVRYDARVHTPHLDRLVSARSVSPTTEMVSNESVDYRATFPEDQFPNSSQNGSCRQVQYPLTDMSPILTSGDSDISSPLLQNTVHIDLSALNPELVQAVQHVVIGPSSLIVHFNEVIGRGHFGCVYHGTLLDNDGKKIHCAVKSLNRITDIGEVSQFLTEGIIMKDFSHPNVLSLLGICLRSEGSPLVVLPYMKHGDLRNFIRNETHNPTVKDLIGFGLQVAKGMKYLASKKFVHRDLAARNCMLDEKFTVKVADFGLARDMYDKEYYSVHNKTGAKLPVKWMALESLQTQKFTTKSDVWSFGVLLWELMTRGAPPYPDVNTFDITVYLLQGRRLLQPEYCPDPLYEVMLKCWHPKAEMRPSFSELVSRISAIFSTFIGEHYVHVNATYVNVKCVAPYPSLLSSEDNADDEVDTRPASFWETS

Description: Inhibition of human c-MET

As to `COc1cc2ncnc(Oc3ccc(NC(=O)NC(=O)c4c(F)cccc4F)nc3)c2cc1OC`, half-maximal inhibition (IC50) was put at 430 nM. Consider `COc1cc2nccc(Oc3ccc(-c4cnc(Nc5cccc(F)c5)n(C)c4=O)cc3F)c2cc1OC`, for which the IC50 was 38 nM. As to `CN1CCN(c2cnc3cccc(OCc4cccc([N+](=O)[O-])c4)c3c2)CC1`, inhibition was half-maximal at 57 nM (IC50). This IC50 is about 1.5-fold higher than that of the compound before. As to `Cn1cnc(-c2cc3cccc(Oc4ccc(NC(=S)NC(=O)Cc5ccccc5)cc4F)c3s2)c1`, 29 nM corresponded to half-maximal inhibition (IC50). With `Cn1cc(CC(=O)N/N=C2\C(=O)Nc3ccc(C(=O)N4CCCC4CN4CCCC4)c(Cl)c32)ccc1=O` (stereo unspecified), 4150 nM corresponded to half-maximal inhibition (IC50). With `O=C(Cc1ccc2c(c1)CCO2)NN=C1C(=O)Nc2cc(C(=O)NCN3CCOCC3)cc(Br)c21`, the IC50 was 0.7 nM. Compound `COc1cc2nccc(Oc3ccc(NC(=O)NCCc4c(Cl)cccc4Cl)nc3)c2cc1OC` yielded an IC50 of 5200 nM. `COc1cc2nccc(Oc3ccc(-c4cnc(C(N)c5ccccc5)n(C)c4=O)cc3F)c2cc1OC` (stereo unspecified) gave an IC50 of 72 nM. This IC50 is about 72-fold lower than that of the compound before. `COc1cc2c(Oc3ccc(-c4cnc(Cc5ccc(F)cc5)n(C)c4=O)cc3F)ccnc2cc1OCCCN1CCOCC1` showed an IC50 of 17 nM. This IC50 is about 4.2-fold lower than that of the compound before. As for `CCN1CCN(CCCOc2cc3nccc(Oc4ccc(-c5cnc(Cc6ccccc6)n(C)c5=O)cc4F)c3cc2OC)CC1`, the figure is 21 nM; as for `CN(CCN1CCN(N)CC1)Cc1ccc(-c2cc3nccc(Oc4ccc(NC(=O)N5CCN(c6ccccc6)C5=O)cc4F)c3s2)cc1`, 28 nM; as for `Cc1cc(CCN2CCCC2)c(C)c2c1N(CCN1CCCCC1)C(=O)/C2=N\NC(=O)C(C)c1ccc(O)cc1` (stereo unspecified), 200 nM. In turn, `COc1cc2c(Oc3ccc(-c4cnc(Nc5ccc(F)cc5)n(C)c4=O)cc3F)ccnc2cc1OCCCN1CCOCC1` yielded a 50% inhibitory concentration (IC50) of 4.9 nM. This IC50 lies about 41-fold lower than the previous one.

Consider `CC(C(=O)NN=C1C(=O)Nc2ccc(C(=O)N3CCCC3CN3CCCC3)c(Cl)c21)c1ccc(F)cc1` (stereo unspecified), for which the IC50 is 430 nM.

`Cc1[nH]c(/C=C2\C(=O)Nc3ccc(S(=O)(=O)N4CCc5ccccc54)cc32)c(C)c1C(=O)N1CCN(C)CC1` showed an IC50 of 40 nM. In turn, `Cc1[nH]c(/C=C2\C(=O)Nc3ccc(S(=O)(=O)N(C)c4cccc(Cl)c4)cc32)c(C)c1CCCN1CCOCC1` returned an IC50 of 170 nM. This IC50 is about 4.2-fold higher than that of the compound before. Then `CCn1ccnc1-c1cc2cccc(Oc3ccc(NC(=S)NC(=O)Cc4ccccc4)cc3F)c2s1`, with 108 nM; and `COc1cc2c(Oc3ccc(-c4cnc(Cc5ccccc5)n(C)c4=O)cc3F)ccnc2cc1OCCCN1CCN(C)CC1`, with 9.2 nM.

In the case of `COc1cc2c(Oc3ccc(-c4cnc(Cc5ccccc5)n(C)c4=O)cc3F)ccnc2cc1OCCCN1CCOCC1`, the IC50 was 17 nM.

`O=C(Cc1ccccc1)NC(=S)Nc1ccc(Oc2ccnc3cc(C(=O)C4CCCO4)sc23)c(F)c1` (stereo unspecified) showed an IC50 of 130 nM.

Take `COc1cc2nccc(Oc3ccc(NC(=O)NCC(=O)N(C)C)nc3)c2cc1OC`: the IC50 was found to be 9640 nM.

Consider `O=C(Nc1ccc(Oc2ccnc3ccsc23)cc1)NC1CC1c1ccccc1` (stereo unspecified), for which the IC50 worked out at 10000 nM. Take `O=C(Cc1ccc2c(c1)CCO2)N/N=C1\C(=O)Nc2cc(C(=O)NCCCO)cc(Br)c21`: half-maximal inhibition (IC50) required 65 nM. This IC50 is about 150-fold lower than that of the compound before. `Cn1ccnc1-c1cc2nccc(Oc3ccc(NC(=O)NC(=O)c4c(F)cccc4F)nc3)c2s1` showed an IC50 of 4400 nM.

Take `CN(C)CCNC(=O)c1cc(Br)c2c(c1)NC(=O)/C2=N\NC(=O)Cc1ccc2c(c1)CCO2`: inhibition was half-maximal at 100 nM (IC50).

Consider `O=C(Cc1ccccc1)NC(=O)Nc1ccc(Oc2ccnc3ccsc23)cc1F`, for which the IC50 worked out at 300 nM. Then `COc1ccc2c(Oc3ccc(NC(=O)c4c(C)n(CC(C)(C)O)n(-c5ccccc5)c4=O)cc3F)ccnc2c1`, with 2.7 nM. As for `O=C(Nc1ccc(Oc2ccnc3ccsc23)c(F)c1)NC1CC1c1ccccc1` (stereo unspecified), the figure is 6600 nM.

On to `CC(C)(C)OC(=O)c1cnc2ccn(S(=O)(=O)c3ccccc3[N+](=O)[O-])c2c1`, for which the IC50 was determined as 20 nM. This IC50 is about 330-fold lower than that of the compound before. Then `Cc1cccc2c1NC(=O)/C2=N\NC(=O)Cc1ccc(O)c(Cl)c1`, with 20 nM; and `O=C(Cc1ccccc1)NC(=S)Nc1ccc(Oc2cccc3cc(-c4ncccn4)sc23)c(F)c1`, with 181 nM.
